Data taken from patent publication US7772192B2, “Compositions and methods for treatment of disease with acetylated disaccharides” (The Regents of the University of California, priority 2003, dated 2010).
Several values for one entry are separate records, joined by “and”; a condition that tells them apart may be missing. Equal entries are not always repeated. Where two headings read alike, the source gives them in different places.

Experiments:
LLC cells = assay: Experimental metastasis of pretreated LLC cells; assay type: in vivo, mice; settings: cells treated 5 days, 3 weeks
Protocol: (A) LLC cells were treated in culture for 4 days with peracetylated GlcNAcβ3Gal-NM or vehicle (DMSO/propylene glycol, v/v 1:1). Single-cell suspensions (2×10^5) were injected in the tail-veins of Es1(e) mice. After 3 weeks, the mice were sacrificed and the number of tumors present on the surface of the lungs was determined by visual inspection.
LLC cells were treated in culture for 5 days with 4-deoxy AcGnG-NM, AcGnG-NM or vehicle (DMSO:propylene glycol) and then a single-cell suspension (2×10^5 cells) was injected in the tail vein of mice. After 3 weeks, the number of tumors present on the surface of the lungs was determined.

mixed oligosaccharides = assay: Oligosaccharide priming, [6-3H]Gal incorporation; assay type: cell-based
Description: (§1) A 4-deoxy modified acetylated disaccharide inhibits sLe^X expression in the absence of oligosaccharide priming.

U937 cells = assay: sLe^X expression in U937 cells; assay type: cell-based
Description: as §1

β4GalTI [1] = settings: cited from earlier work
[2] = system: Lewis carbohydrate antigens on cells; settings: monosaccharide; cited from earlier work
β4GalTI [3] = assay: Acceptor specificity and inhibitory action of GlcNAc derivatives (β4galactosyltransferase); assay type: biochemical; settings: no reference given
Description: The compounds in Table 1 were selected based on information about β4GalTI, also known as lactose synthase. The enzyme adds galactose to GlcNAc-terminated oligosaccharides on glycoproteins and glycolipids, and will produce lactose in the presence of the cofactor, α-lactalbumin (Berger et al., Biochimie., 85, 261-274, 2003). It is part of a multigene family of β4galactosyltransferases (Hennet, Cell Mol Life. Sci., 59, 1081-1095, 2002; Amado et al., Biochim. Biophys. Acta Gen. Subj., 1473, 35-53, 1999). β4GalTI has been studied kinetically, its substrate specificity has been well documented, and X-ray structures with and without UDP-Gal are available (Gastinel et al., EMBO J., 18, 3546-3557, 1999; Ramakrishnan et al., J. Mol. Biol., 310, 205-218, 2001; Ramakrishnan et al., J. Mol. Biol., 318, 491-502, 2002).
β4GalTI will act on free GlcNAc, GlcNAc-terminated oligosaccharides and GlcNAc glycosides, including GlcNAcβ3Gal-R (Table 2). […] One possibility for the discrepancy may be that the large aromatic aglycone in our compound may facilitate binding to the enzyme. […]

[4] = system: sLe^X on LS180 cell surface; assay: ELISA with CSLEX-1 mAb of cell-surface sLe^X; assay type: cell-based, human; settings: LS180 cells
[5] = system: LS180 cells adhering to recombinant E- or P-selectin; assay: Cell adhesion to immobilized selectins, control values given for E- and P-selectin together; assay type: cell-based, human
Protocol: Cell adhesion to immobilized selectins. 96-well plates were coated overnight at 4° C. with recombinant E-selectin (4 μg/ml) or P-selectin (2 μg/ml) (R & D Systems) and blocked with 1% BSA/PBS. LS180 cells were grown for 5 days with various amounts of acetylated disaccharide, harvested, labeled with Calcein AM (5 μM, Molecular Probes) in DMEM/1% FBS, and allowed to settle at room temperature on selectin-coated wells (5×10^4 cells/well). Plates were then stirred at 75 rpm for 30 min (Orbit shaker, Lab-Line Instruments) followed by immersion upside-down in a vessel filled with Hank's buffered saline solution (HBSS, Sigma), which allowed non-adherent cells to fall under gravity. St John et al., J. Immunol Methods, 170: 159-166, 1994. The wells were then washed by aspiration using HBSS. LS180 cells were less adherent to P-selectin, so the immersion step was not necessary prior to washing. […] Fluorescence was measured using a 96-well fluorimeter (CytoFluor II), and the average of triplicate measurements was determined±standard error. Cell viability was judged to be >90% by Trypan blue exclusion at the end of each experiment.
Adhesion to selectins is altered in disaccharide-treated tumor cells. Treatment of LS180 cells with AcGnG-NM was not toxic to the cells up to 100 μM based on growth curves and exclusion of Trypan blue. […]

[6] = system: sialyl Lewis X in HL-60, LS180, murine Lewis lung carcinoma, B16 murine melanoma cells; assay: Inhibition of sialyl Lewis X formation in cultured cells; assay type: cell-based
Description: The disaccharides can be acylated with, e.g., acetyl, butyryl or benzoyl groups to reduce their hydrophilicity and make them permeable to cell membranes. […] The various disaccharides described above and their acylated or aryl derivatives are logical extensions of the present invention. In addition, analogs of the above compounds in which critical hydroxyl groups are missing or alkylated would bind to glycosyltransfersase and inhibit their activity.

[7] = aromatic aglycones, read-out: Ki

With “4′-deoxy-GlcNAcβ3Gal-O-NM [4-deoxy AcGnG-NM]” the “experimental metastasis (tumors on the surface of the lungs)” value (LLC cells) was “inhibited experimental metastasis”, the “incorporation of [6-^3H]Gal into mixed oligosaccharides” value (mixed oligosaccharides) was “does not” and the “sLe^X expression” value (U937 cells) was “inhibit sLe^X expression”. The “sLe^X expression” value (U937 cells; listed as 4-deoxy-GlcNAcβ3Gal-NM) was “inhibits formation of sLe^X”.
For `CO[C@@H]1O[C@H](CO)[C@@H](O)[C@H](OC)[C@H]1NC(C)=O` [3-O-methyl-GlcNAcβ-O-Me], the Km (β4GalTI [1]; acceptor, read-out: Km) is listed as 77000 µM and the Vmax (β4GalTI [1]) is listed as 2.4 nmol/min.
In the case of `CO[C@@H]1O[C@H](CO)[C@@H](O)C[C@H]1NC(C)=O` [3-deoxy-GlcNAcβ-OMe], the Km (β4GalTI [1]; acceptor, read-out: Km) is listed as 4200 µM.
For `CO[C@@H]1O[C@H](CO)[C@H](O)[C@H](O[C@@H]2O[C@H](CO)[C@@H](O)[C@H](F)[C@H]2NC(C)=O)[C@H]1O` [3′-F-GlcNAcβ3Galβ-OMe], the Ki (β4GalTI [1]; read-out: Ki) is listed as 2700 µM.
For `CC(=O)NC1C(OCc2ccccc2)OC(CO)C(N)C1O` (centres unmarked) [4-NH2-GlcNAcβ-OBn], the Km (β4GalTI [1]; acceptor, unit not given) is given as “Inactive”, the Ki (β4GalTI [1]; read-out: Ki) is given as 850 µM and the Vmax (β4GalTI [1]; unit not given) is given as “Inactive”.
For `COC1OC(CO)C(OC)C(O)C1NC(C)=O` (centres unmarked) [4-O-methyl-GlcNAcβ-O-Me], the Km (β4GalTI [1]; acceptor, unit not given) is given as “Inactive”, the Ki (β4GalTI [1]; result in words) is given as “No inhibition” and the Vmax (β4GalTI [1]; unit not given) is given as “Inactive”.
For `COC1OC(CO)CC(O)C1NC(C)=O` (centres unmarked) [4-deoxy-GlcNAcβ-O-Me], the Km (β4GalTI [1]; acceptor, unit not given) is listed as “Inactive”, the “inhibition of the enzyme (β4GalT1)” value (β4GalTI [1]) is listed as “did not inhibit” and the Ki (β4GalTI [1]; result in words) is listed as “No inhibition”. The Vmax (β4GalTI [1]; unit not given) was “Inactive”.
In the case of `COC1OC(CO)C(F)C(O)C1NC(C)=O` (centres unmarked) [4-fluoro-GlcNAcβ-OMe], the Km (β4GalTI [1]; acceptor, unit not given) is given as “Inactive”, the Ki (β4GalTI [1]; result in words) is given as “No inhibition” and the Vmax (β4GalTI [1]; unit not given) is given as “Inactive”.
In the case of `COC1OC(CO)C(S)C(O)C1NC(C)=O` (centres unmarked) [4-thio-GlcNAcβ-OMe], the Km (β4GalTI [1]; acceptor, unit not given) is given as “Inactive”, the Ki (β4GalTI [1]; result in words) is given as “No inhibition” and the Vmax (β4GalTI [1]; unit not given) is given as “Inactive”.
In the case of `COC1OC(CO)C(O)C(OC2OC(CO)CC(O)C2NC(C)=O)C1O` (centres unmarked) [4′-deoxy-GlcNAcβ3Galβ-OMe], the Km (β4GalTI [1]; acceptor, unit not given) is listed as “Inactive”, the “inhibition of the enzyme (β4GalT1)” value (β4GalTI [1]) is listed as “did not inhibit” and the Ki (β4GalTI [1]; result in words) is listed as “No inhibition”.
In the case of `COC1OC(COC2OC(CO)CC(O)C2NC(C)=O)C(O)C(O)C1O` (centres unmarked) [4′-deoxy-GlcNAcβ6Glcβ-OMe], the Km (β4GalTI [1]; acceptor, unit not given) is given as “Inactive” and the Ki (β4GalTI [1]; result in words) is given as “No inhibition”.
In the case of `COC[C@H]1O[C@@H](OC)[C@H](NC(C)=O)[C@@H](O)[C@@H]1O` [6-O-methyl-GlcNAcβ-O-Me], the Vmax (β4GalTI [1]) is listed as 1.1 nmol/min.
For `CO[C@@H]1O[C@H](C)[C@@H](O)[C@H](O)[C@H]1NC(C)=O` [6-deoxy-GlcNAcβ-O-Me], the Km (β4GalTI [1]; acceptor, read-out: Km) is listed as 500 µM.
In the case of `COC1OC(CO)C(O)C(OC2OC(CS)C(O)C(O)C2NC(C)=O)C1O` (centres unmarked) [6′-thio-GlcNAcβ3Galβ-OMe], the Km (β4GalTI [1]; acceptor, unit not given) is given as “Inactive”, the “inhibition of the enzyme (β4GalT1)” value (β4GalTI [1]) is given as “weak inhibitor” and the Ki (β4GalTI [1]; read-out: Ki) is given as 1000 µM. For the same molecule, the Vmax (β4GalTI [1]; unit not given) was “Inactive”.
In the case of `CO[C@@H]1O[C@H](CO[C@@H]2O[C@H](CS)[C@@H](O)[C@H](O)[C@H]2NC(C)=O)[C@@H](O)[C@H](O)[C@H]1O` [6′-thio-GlcNAcβ6Glcβ-OMe], the Km (β4GalTI [1]; acceptor, read-out: Km) is given as 1200 µM.
In the case of `OC[C@@H]1C[C@H](O)[C@@H](O)C(O)O1` (some centres unmarked) [Compound 4-deoxy-Glc, 4-deoxy-Glc], the “inhibition of β4GalT1” value (β4GalTI [1]; in the presence of lactalbumin) is listed as “weak inhibitor”.
In the case of `CC(=O)N[C@H]1[C@@H](OCc2ccccc2)O[C@H](CO)[C@H](O)[C@@H]1O` [GalNAcα-O-benzyl], the “concentration needed to achieve a similar level of inhibition” value [2] is given as 1 to 5 mM.
In the case of `CC(=O)N[C@H]1C(O)O[C@H](CO)[C@@H](O)[C@@H]1O` (some centres unmarked) [GlcNAc], the Km (β4GalTI [1]; read-out: Km) is listed as 1000 to 10000 µM.
In the case of `CC(=O)N[C@H]1[C@H](O[C@H]2[C@@H](O)[C@@H](CO)O[C@@H](OCc3ccc4ccccc4c3)[C@@H]2O)O[C@H](CO)[C@@H](O)[C@@H]1O` [GlcNAcβ3Galβ-O-2-NM], the Km (β4GalTI [3]) is reported as < 10 µM.
In the case of `CO[C@@H]1O[C@H](CO)[C@H](O)[C@H](O[C@@H]2O[C@H](CO)[C@@H](O)[C@H](O)[C@H]2NC(C)=O)[C@H]1O` [GlcNAcβ3Galβ-OMe], the Km (β4GalTI [1]; acceptor, read-out: Km) is listed as 1100 µM.
For `CC(=O)NC1C(Oc2cccc3ccccc23)OC(CO)C(O)C1O` (centres unmarked) [GlcNAcβ-O-1-naphthol], the Ki (β4GalTI [1]; [7]) is listed as 22 µM.
In the case of `CC(=O)N[C@H]1[C@H](Oc2c(Br)ccc3ccccc23)O[C@H](CO)[C@@H](O)[C@@H]1O` [GlcNAcβ-O-2-bromonaphthol], the Ki (β4GalTI [1]; [7]) is given as 7.6 µM.
For `CC(=O)N[C@H]1[C@H](Oc2c(C)ccc3ccccc23)O[C@H](CO)[C@@H](O)[C@@H]1O` [GlcNAcβ-O-2-methylnaphthol], the Ki (β4GalTI [1]; [7]) is given as 3.5 µM.
In the case of `CC(=O)NC1C(Oc2ccc3ccccc3c2)OC(CO)C(O)C1O` (centres unmarked) [GlcNAcβ-O-2-naphthol], the Ki (β4GalTI [1]; [7]) is given as 9.5 µM.
For `CO[C@@H]1O[C@H](CO)[C@@H](O)[C@H](O)[C@H]1NC(C)=O` [GlcNAcβ-O-Me], the Km (β4GalTI [1]; acceptor, read-out: Km) is listed as 1300 µM and 1800 µM and 1500 µM.
For “Galβ1,3Galβ-O-naphthalenemethanol [AcGG-NM]”, the “expression of sLe^X on the cell surface” value [4] was “no effect”, the “extent of adhesion normalized to cells not treated with disaccharide” value ([5]; E- and P-selectin, disaccharide at 50 μM) was 0.95-1.1 and the “adhesion to either selectin conjugate” value ([5]; LS180 cells) was “no effect”.
For “Galβ1,4GlcNAcβ-O-naphthalenemethanol [AcGGn-NM]”, the “formation of sialyl Lewis X” value [6] was “inhibit the formation of sialyl Lewis X”.
